Laboratory results published in US20070088024A1, “Active substance combination comprising a carbinol combined to at least an NSAID” (LABORATORIOS DEL DR. ESTEVE S.A., priority 2004, published 2007).

What was measured:
[1] = system: male Swiss albino mice; test: Writhing test in mice (phenylbenzoquinone-induced writhing reactions); type: in vivo; settings: for % Activity (inhibition of the writhing reactions): 60 minutes prior to phenylbenzoquinone; for ED50: p.o., in mg/kg
Method: (§1) The Writhing test for the determination of the analgesic activity of the inventive active substance combination is carried out according to the method described in the publication of E. Siegmund et al., Proc. Soc. Exp. Biol. Med. 1957, 95, 729-731 using male Swiss albino mice (20-25 g body weight, obtained from Harlan, S. Feliu de Codinas, Spain). The respective part of the description is hereby incorporated by reference and forms part of the respective disclosure.
The Writhing reactions are induced by intraperitoneal injection of phenylbenzoquinone (25 ml/kg in a 0.02% (volume/volume) ethanolic solution in a 5% (volume/volume) solution in destillated water with Evan's blue in an amount of 0.1% weight/volume) and the writhing reactions are counted during a 15 minute period following the injection. The substances to be tested are orally administered 60 minutes prior to the injection of the phenylbenzoquinone solution. The percentage of the inhibition of the writhing reactions is calculated on the basis of the control group as basis for 0% inhibition.

[2] = system: male Swiss albino mice; test: Formaline test in mice; type: in vivo; settings: 40 mg/kg i.p.
Method: as §1, with “Formaline” for “Writhing”, “T. Ohkubo” for “E. Siegmund”, “J. Pharmacol.” for “Proc. Soc.”, “Ther. 1990, 252, 1261-1268” for “Biol. Med. 1957, 95, 729-731”
The substances to be tested are intraperitoneally administered to the mice in 5% by weight solution of arabic gum in destined water as vehicle. 15 minutes later 20 μl of a 5% by weight solution of formaline in saline solution is injected into the back of the right paw of the animals. The total time in seconds of licking and/or biting the injected paw is registered in the acute phase, i.e. 0-5 minutes (phase I), and in the chronic phase, i.e. 15-30 (phase II), minutes after injection of the formaline.
The percentage of inhibition is calculated based on the medium values of the acute and chronic phases of the control group as 0% inhibition of the primary and secondary response.

SMILES | % Activity (inhibition of the writhing reactions) ([1]; 40 mg/kg p.o.) | % Activity (inhibition of the writhing reactions) ([1]; 80 mg/kg p.o.) | % Activity (inhibition of the writhing reactions) ([1]; 160 mg/kg p.o.) | ED50 [1] | % Activity Phase I ([2]; acute phase 0-5 minutes) | % Activity Phase II ([2]; chronic phase 15-30 minutes)
CN(C)CCO[C@H](c1ccccc1)c1ccnn1C.O=C(O)Cc1ccccc1Nc1c(Cl)cccc1Cl [R-(+)-Cizolirtine diclofenacate, R-(+)-5-[α-[2-(Dimethylamino)ethoxy]benzyl]-1-methyl-1H-pyrazole diclofenacate] | 14.7% | 57.3% | 72.1% | 84 |  | 
CC(C)Cc1ccc([C@H](C)C(=O)O)cc1.CN(C)CCO[C@H](c1ccccc1)c1ccnn1C [R-(+)-Cizolirtine ibuprofenate, R-(+)-5-[α-[2-(Dimethylamino)ethoxy]benzyl]-1-methyl-1H-pyrazole S-(+)-ibuprofenate] | 15.9% | 45% | 80.9% | 84.8 |  | 
CN(C)CCO[C@H](c1ccccc1)c1ccnn1C.COc1ccc2cc([C@H](C)C(=O)O)ccc2c1 [R-(+)-Cizolirtine naproxenate, R-(+)-5-[α-[2-(Dimethylamino)ethoxy]benzyl]-1-methyl-1H-pyrazole naproxenate] | 32.0% | 52.0% | 77.3% | 71.29 | 49% | 36%
CN(C)CCO[C@@H](c1ccccc1)c1ccnn1C.COc1ccc2cc([C@H](C)C(=O)O)ccc2c1 [S-(−)-Cizolirtine naproxenate, S-(−)-5-[α-[2-(Dimethylamino)ethoxy]benzyl]-1-methyl-1H-pyrazole naproxenate] | 26.7% | 52.4% | 68.5% | 82.15 |  | 
CN(C)CCO[C@@H](c1ccccc1)c1ccnn1C [S-(−)-Cizolirtine, S-(−)-5-[α-[2-(Dimethylamino)ethoxy]benzyl]-1-methyl-1H-pyrazole] | 29.0% | 49.7% | 59.7% | 95.26 |  | 
